Results from ChEMBL document CHEMBL1201862, “PubChem BioAssay data set” (2004).
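A five-concentration, 48-hour dose response in 96-well plates underlies each endpoint, interpolated linearly between surrounding concentrations. GI50: concentration for 50% inhibition of growth.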 Calls of active or inactive are those of the source. Rule as the data show it: active = GI50 up to about 1.1 µM and inactive = higher.

Legend:
Assay in all cases: NCI-60 cell line screen, 48 h
[1] = system: 786-0
[2] = system: A498
[3] = system: COLO 205
[4] = system: EKVX
[5] = system: HCC 2998
[6] = system: HOP-62
[7] = system: HOP-92
[8] = system: IGROV-1
[9] = system: K562
[10] = system: LOX IMVI
[11] = system: Malme-3M
[12] = system: SK-MEL-28
[13] = system: SK-MEL-2
[14] = system: SK-OV-3
[15] = system: SN12C
[16] = system: SNB-19
[17] = system: SW-620

Measured: GI50

O=C(CCc1nnc(S)[nH]1)Nc1cccc(C(F)(F)F)c1
inactive: [1] > 100 µM | [2] > 100 µM | [3] 80 µM | [4] > 100 µM | [5] > 100 µM | [6] > 100 µM | [7] > 100 µM | [8] > 100 µM | [9] > 100 µM | [10] > 100 µM | [11] > 100 µM | [12] > 100 µM | [13] > 100 µM | [14] > 100 µM | [15] > 100 µM | [16] > 100 µM | [17] 11.2 µM

COc1cccc(NC(=O)CC(=O)n2nc(C)c(/N=N/c3ccccc3)c2C)c1
inactive: [1] > 100 µM | [2] 76 µM | [3] > 100 µM | [4] 58.6 µM | [5] > 100 µM | [6] > 100 µM | [7] > 100 µM | [8] > 100 µM | [10] 83.6 µM | [11] > 100 µM | [12] > 100 µM | [14] > 100 µM | [15] > 100 µM | [16] > 100 µM | [17] > 100 µM

Cc1nc(Nc2ccccc2)sc1C(=O)NNC(N)=O
inactive: [1] > 100 µM | [2] 46.9 µM | [3] > 100 µM | [4] 55.6 µM | [5] > 100 µM | [6] 49.8 µM | [7] 64.4 µM | [8] > 100 µM | [9] > 100 µM | [10] > 100 µM | [11] > 100 µM | [12] > 100 µM | [13] > 100 µM | [14] > 100 µM | [15] > 100 µM | [16] > 100 µM | [17] > 100 µM

C#CCCCCC#CC1CCCC1C1=CC(=O)c2ccccc21 (configuration not stated)
inactive: [2] 15 µM | [3] 15.3 µM | [4] 14.8 µM | [5] 12.6 µM | [6] 7.36 µM | [7] 4.09 µM | [8] 6 µM | [9] 2.4 µM | [10] 3.22 µM | [11] 6.55 µM | [12] 5.18 µM | [13] 11.2 µM | [14] 15.3 µM | [15] 6.38 µM | [16] 15.5 µM | [17] 2.28 µM

CSCC[C@@H](NC(=O)[C@H](CC(C)C)NC(=O)C(Cc1cnc[nH]1)NC(=O)CNC(=O)[C@@H](NC(=O)[C@H](C)NC(=O)[C@H](Cc1c[nH]c2ccccc12)NC(=O)[C@H](CCC(N)=O)NC(=O)[C@@H](N)CC(N)=O)C(C)C)C(N)=O (some centres not stated)
inactive: [2] > 100 µM | [3] > 100 µM | [4] > 100 µM | [5] > 100 µM | [6] > 100 µM | [7] > 100 µM | [8] > 100 µM | [9] > 100 µM | [10] 99.8 µM | [11] > 100 µM | [12] > 100 µM | [13] > 100 µM | [14] > 100 µM | [15] > 100 µM | [16] > 100 µM | [17] > 100 µM

O=C1CSC(Cc2nc3ccccc3[nH]2)=N1
inactive: [1] 17.1 µM | [2] 5.98 µM | [3] 23.5 µM | [4] 33.7 µM | [5] 18.3 µM | [6] 22.3 µM | [7] 29.9 µM | [8] 26.6 µM | [9] 15 µM | [10] 13.9 µM | [11] 10.6 µM | [12] 16 µM | [13] 16.3 µM | [14] 36.1 µM | [15] 18.1 µM | [16] 21.1 µM | [17] 31.9 µM

O=C(O)CCc1cccc2c1oc1c(CCC(=O)O)cccc12
inactive: [1] > 100 µM | [2] > 100 µM | [3] > 100 µM | [5] > 100 µM | [7] > 100 µM | [8] > 100 µM | [9] > 100 µM | [10] > 100 µM | [11] > 100 µM | [12] > 100 µM | [13] > 100 µM | [14] > 100 µM | [15] > 100 µM | [16] > 100 µM | [17] > 100 µM

CC(O)/C=C/C(CCC(C)CO)C(C)C (configuration not stated)
inactive: [1] > 100 µM | [2] > 100 µM | [3] > 100 µM | [4] > 100 µM | [5] > 100 µM | [6] > 100 µM | [7] > 100 µM | [8] > 100 µM | [9] > 100 µM | [10] > 100 µM | [11] > 100 µM | [12] > 100 µM | [13] > 100 µM | [14] > 100 µM | [15] > 100 µM | [16] > 100 µM | [17] > 100 µM

O=C(CSSCC(=O)Nc1ccc(Br)cc1)Nc1ccc(Br)cc1
inactive: [1] 17.6 µM | [2] 19.6 µM | [3] 28.5 µM | [4] 26.5 µM | [5] 22.1 µM | [6] 12.4 µM | [7] 19 µM | [8] 18.2 µM | [9] 21.2 µM | [10] 10.8 µM | [11] 21.8 µM | [12] 18.5 µM | [14] 25.4 µM | [15] 16.3 µM | [16] 15.3 µM | [17] 15.2 µM

CC(=O)Nc1ccc(C(=O)NN2C(=O)C(Cl)C2c2cc(Br)cc(Br)c2O)cc1 (configuration not stated)
inactive: [1] > 100 µM | [2] > 100 µM | [3] > 100 µM | [4] > 100 µM | [5] > 100 µM | [6] > 100 µM | [7] > 100 µM | [8] 52.6 µM | [9] > 100 µM | [10] > 100 µM | [11] > 100 µM | [12] > 10 µM | [13] > 100 µM | [14] > 100 µM | [15] > 100 µM | [16] > 100 µM | [17] > 100 µM

Cc1cc(C)n(CCNCCn2nc(C)cc2C)n1
inactive: [1] > 100 µM | [2] > 100 µM | [3] > 100 µM | [4] > 100 µM | [5] > 100 µM | [6] > 100 µM | [7] > 100 µM | [9] > 100 µM | [10] > 100 µM | [12] 91 µM | [14] > 100 µM | [15] > 100 µM | [16] > 100 µM | [17] > 100 µM

Cc1cccc(C)c1NC(=O)CCC(=O)NC(N)=S
inactive: [1] > 100 µM | [2] > 100 µM | [3] > 100 µM | [4] > 100 µM | [5] > 100 µM | [6] > 100 µM | [7] > 100 µM | [8] > 100 µM | [9] > 100 µM | [10] > 100 µM | [11] > 100 µM | [14] > 100 µM | [15] > 100 µM | [16] > 100 µM | [17] > 100 µM
